{"source": "patent US20130084319A1", "about": "“BROAD-SPECTRUM ANTIMICROBIAL COMPOSITIONS BASED ON COMBINATIONS OF TAUROLIDINE AND PROTAMINE AND MEDICAL DEVICES CONTAINING SUCH COMPOSITIONS” (priority 2011, published 2013)", "key": {"[1]": {"test_system": "Staphylococcus aureus ACTT 6538", "assay": "in vitro bacteria attachment assay on coated surgical mesh discs in SST medium", "assay_type": "cell-based", "conditions": "serum containing media", "procedure": "(§1) Taurolidine was dissolved at 4% wt./vol. in a 70% acetone 30% water vol./vol. mixture. Protamine sulfate was dissolved at 10% wt./vol. in water under warming. 50 μl of the taurolidine (TU) solution and 20 μl of the protamine (PS) solution were applied to each mesh disk using a pipette and allowed to dry at 50° C. until the majority of the liquid was gone and then stored under vacuum. First the taurolidine solution was applied, and then immediately thereafter the protamine sulfate solution was applied. The in vitro bacteria attachment assay was developed for its utility of indicating biofilm prevention potential of prototype mesh. Since bacterial attachment to a surface is the first step of biofilm formation, a surface treatment that inhibits bacterial attachment would reduce the chance of subsequent biofilm formation. The assay was conducted in SST (Serum Saline TSB) medium to mimic in vivo and clinical conditions. The formulation of SST is Tryptic Soy Broth (TSB):serum:saline in the ratio of 1:2:7. Each test article was incubated in SST inoculated with Staphylococcus aureus ACTT 6538 or Escherichia coli ATCC 25922 at about 6 Log CFU/ml. […] Viable bacteria populations were measured by plate count on TSA (Tryptic Soy agar) medium contain neutralizing agents. […]"}, "[2]": {"test_system": "Escherichia coli ATCC 25922", "assay": "in vitro bacteria attachment assay on coated surgical mesh discs in SST medium", "assay_type": "cell-based", "conditions": "serum containing media", "procedure": "as §1"}, "[3]": {"conditions": "cited from earlier work"}}}
{"smiles": "O=S1(=O)CCN(CN2CCS(=O)(=O)NC2)CN1", "note": "[TU, bis(1,1-dioxoperhydro-1,2,4-thiadiazinyl-4)-methane]", "values": [{"measurement": "inhibition of attachment by S. aureus to treated mesh surface", "setting": "[1]", "result": "less inhibition than the combination"}, {"measurement": "inhibition of attachment by E. coli to treated mesh surface", "setting": "[2]", "result": "less inhibition than the combination"}, {"measurement": "cumulative dose shown to be safe and well tolerated", "setting": "[3]; cumulative doses", "result": "exceeding 300 g"}, {"measurement": "systemic dose shown to be safe and well tolerated", "setting": "[3]; systemic doses", "result": "exceeding 40 g/day"}]}
